These results are taken from ChEMBL document CHEMBL3784987, “Synthesis and preliminary evaluation of 5,7-dimethyl-2-aryl-3H-pyrrolizin-3-ones as angiogenesis inhibitors” (Bioorg Med Chem Lett, 2016).

Assay [1] concerns HUVEC. Nature of the assay: Antiangiogenic activity in human HUVEC cells assessed as angiogenesis rate at 10 uM after 5 hrs by endothelial tube formation assay relative to control. Type of assay: functional.
Assay [2] relates to Thoracic aorta. Nature of the assay: Antiangiogenic activity in Fischer 344 rat thoracic aorta assessed as field of view occupancy at 10 microg/ml after 5 days light microscopic analysis(reference value: 86 %). It counts as functional.
The nature of assay [3]: Cytotoxicity against mouse SVEC4-10 cells assessed as cell viability after 24 hrs by MTS assay. The conditions noted are these: SVEC4-10, 24 h. It counts as cell-based. Background: Tetrazolium dyes change colour on reduction, which living cells bring about.
For assay [4], the system named is HUVEC. Nature of the assay: Antiangiogenic activity in human HUVEC cells assessed as angiogenesis rate at 1 uM after 5 hrs by endothelial tube formation assay relative to control. It counts as functional.
The test system of assay [5] is Thoracic aorta. Nature of the assay: Antiangiogenic activity in Fischer 344 rat thoracic aorta assessed as field of view occupancy at 1 microg/ml after 5 days by light microscopic analysis (reference value: 86 %). Type of assay: functional.

Activity calls are given as the source filed them. The rule behind the calls is not given here.

In the case of `Cc1cc(C)n2c1C=C(c1ccccc1Br)C2=O`, the outcome with HUVEC [1] was Active. Same read-out and setting: next, `Cc1cc(C)n2c1C=C(c1ccccc1F)C2=O`: “Active”. In the case of `Cc1cc(C)n2c1C=C(c1ccccc1)C2=O`, the Activity in the assay with HUVEC [1] is listed as 68.4%. In the assay on Thoracic aorta [2], the result was Active.

As for `Cc1ccc(C2=Cc3c(C)cc(C)n3C2=O)cc1`, in the assay with HUVEC [1], the result was inactive. Still for that read-out and setting: under `Cc1cc(C)n2c1C=C(c1cccc(Cl)c1)C2=O` stands “inactive”; under `Cc1cc(C)n2c1C=C(c1cccc([N+](=O)[O-])c1)C2=O`, “inactive”. Regarding `Cc1cc(C)n2c1C=C(c1cccc(Br)c1)C2=O`, in the assay on HUVEC [1], the outcome was inactive. Same read-out and setting: next, `Cc1cc(C)n2c1C=C(c1ccc([N+](=O)[O-])cc1)C2=O`: “inactive”; `Cc1cc(C)n2c1C=C(c1ccc(Cl)cc1)C2=O`: “inactive”; `Cc1cc(C)n2c1C=C(c1ccc(F)cc1)C2=O`: “inactive”.

The IC50 is the concentration needed to halve the response being measured. For `CCN(CC)CCNC(=O)c1c(C)[nH]c(/C=C2\C(=O)Nc3ccc(F)cc32)c1C` [SUNITINIB], the result in the assay on HUVEC [1] was Active. In assay [3], the IC50 was found to be 8 µM.

Take `Cc1cc(C)n2c1C=C(c1ccc(Br)cc1)C2=O`: the outcome in the assay on HUVEC [1] was inactive. The same measure, in the same setting: under `Cc1cc(C)n2c1C=C(c1cccc(F)c1)C2=O` stands “inactive”. Same read-out and setting: next, `Cc1ccccc1C1=Cc2c(C)cc(C)n2C1=O`: “Active”. On to `Cc1cc(C)n2c1C=C(c1ccccc1[N+](=O)[O-])C2=O`, for which the figures for the Activity in the assay with HUVEC [1], with HUVEC [4] and in the assay with Thoracic aorta [2] were 29.7%, 74% and 4%, respectively. Besides, in assay [3], the IC50 was found to be 32 µM. Moreover, the outcome with Thoracic aorta [5] was inactive. For `COc1ccccc1C1=Cc2c(C)cc(C)n2C1=O`, in the assay on HUVEC [1], the outcome was Active. Same read-out and setting: next, `Cc1cc(C)n2c1C=C(c1ccccc1Cl)C2=O`: “inactive”. Same read-out and setting: under `Cc1cccc(C2=Cc3c(C)cc(C)n3C2=O)c1` stands “inactive”. Consider `COc1cccc(C2=Cc3c(C)cc(C)n3C2=O)c1`, for which the result with HUVEC [1] was inactive. Regarding `Cc1cc(C)c(/C=C2\C(=O)Nc3ccccc32)[nH]1` [SEMAXANIB], the Activity is given as 61% in the assay with Thoracic aorta [5] and 10% with Thoracic aorta [2].
